The text below walks through data of patent publication US8039490B2, “Benzoyl-piperidine derivatives as dual modulators of the 5-HT2A and D3 receptors” (Hoffmann-La Roche Inc., priority 2006, dated 2011).

In test [1] the target is T1, human 5-HT2A serotonin receptor (Homo sapiens, UniProt P28223).
T1 construct: expressed in transfected cells; host or cells: HEK-293 EBNA cells (transient transfection), membrane preparation
The test can be described thus: Radioligand binding, human 5-HT2A receptor ([3H]-ketanserin). The following applies: second value of the cell; membranes of transfected HEK-293 EBNA cells, 1.1 nM [3H]-ketanserin; read-out: Ki(nM) D3/5HT2A/D2: 5HT2A. The protocol:
(§1) The cells were harvested 48 h post-transfection, washed three times with cold PBS and stored at −80° C. prior to use. The pellet was suspended in cold 50 mM Tris-HCl buffer containing 10 mM EDTA (pH 7.4) and homogenized with a Polytron (Kinematica AG, Basel, Switzerland) for 20-30 sec at 12.000 rpm. After centrifugation at 48.000×g for 30 min at 4° C., the pellet was resuspended in cold 10 mM Tris-HCl buffer containing 0.1 mM EDTA (pH 7.4), homogenized, and centrifuged as above. This pellet was further resuspended in a smaller volume of ice cold 10 mM Tris-HCl buffer containing 0.1 mM EDTA (pH 7.4) and homogenized with a Polytron for 20-30 sec at 12.000 rpm. The protein content of this homogenate was determined with the Bio-Rad (Bradford) Protein Assay (Biorad Laboratories GmbH, München, Germany) according to the instructions of the manufacturer using gamma globulin as the standard. This homogenate was stored at −80° C. in aliquots and thawed immediately prior to use.
(§2) Aliquots of membrane preparations were thawed at RT, resupended in assay buffer (D2, D3: 50 mM Tris-HCl, 120 mM NaCl, 5 mM MgCl2, 1 mM EDTA, 5 mM KCl, 1.5 mM CaCl2, pH=7.4; 5-HT2A: 50 mM Tris-HCl, 10 mM MgCl2, 1 mM EGTA, pH=7.4), homogenized with a Polytron for 20-30 sec at 12.000 rpm and adjusted to a final concentration of approximately 7.5 μg protein/well (D2, D3) and 15 μg protein/well (5-HT2A), respectively.
(§3) The binding affinity (Ki) of the compounds was determined using radioligand binding. […] The nonspecific binding was determined with equally composed reaction mixtures in the presence of 10 μM unlabelled spiperone. Per well 45 μl of Microscint 40 (Perkin Elmer, Schwerzenbach, Switzerland) was added, plates for sealed, shaken for 20 min and counted for 3 min on a Topcount Microplate Scintillation Counter (Canberra Packard SA, Zürich, Switzerland) with quenching correction.
(§4) The CPM value for each duplicate of a concentration of competing compound was averaged (y1), then the % specific binding was calculated according to the equation (((y1−non-specific)/(total binding-non-specific))×100). Graphs were plotted with the % specific binding using XLfit, a curve fitting program that iteratively plots the data using Levenburg Marquardt algorithm. The single site competition analysis equation used was y=A+((B−A)/(+((x/C)^D))), where y is the % specific binding, A is the minimum y, B is the maximum y, C is the IC50, x is the log10 of the concentration of the competing compound and D is the slope of the curve (the Hill Coefficient). […] The affinity constant (Ki) was calculated using the Cheng-Prusoff equation KI =(IC50/1+([L]/Kd), where [L] is the concentration of radioligand and Kd is the dissociation constant of the radioligand at the receptor as determined by the saturation isotherm.

In test [2] the target is T2, human D2 dopamine receptor (Homo sapiens, UniProt P14416).
T2 construct: expressed in transfected cells; host or cells: HEK-293 EBNA cells (transient transfection), membrane preparation
T2 sequence (P14416 whole entry): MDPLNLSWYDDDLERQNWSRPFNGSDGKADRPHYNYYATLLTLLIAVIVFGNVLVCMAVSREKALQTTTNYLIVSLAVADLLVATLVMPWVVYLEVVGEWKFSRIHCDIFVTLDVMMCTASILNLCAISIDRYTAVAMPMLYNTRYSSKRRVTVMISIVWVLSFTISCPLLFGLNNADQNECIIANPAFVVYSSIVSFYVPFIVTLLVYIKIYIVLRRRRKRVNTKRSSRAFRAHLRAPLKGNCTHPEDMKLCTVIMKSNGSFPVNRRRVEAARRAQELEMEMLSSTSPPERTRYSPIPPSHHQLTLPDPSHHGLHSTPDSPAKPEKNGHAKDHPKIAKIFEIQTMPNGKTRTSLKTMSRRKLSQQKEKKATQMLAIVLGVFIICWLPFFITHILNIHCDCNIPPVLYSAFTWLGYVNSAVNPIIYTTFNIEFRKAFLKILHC
The test is described as follows: Radioligand binding, human D2 receptor ([3H]-spiperone). The following applies: third value of the cell; membranes of transfected HEK-293 EBNA cells, 0.7 nM [3H]-spiperone; read-out: Ki(nM) D3/5HT2A/D2: D2. The protocol: as §1, §2, §3, §4

The target of test [3] is T3, human D3 dopamine receptor (Homo sapiens, UniProt P35462).
T3 construct: expressed in transfected cells; host or cells: HEK-293 EBNA cells (transient transfection), membrane preparation
T3 sequence (P35462 whole entry): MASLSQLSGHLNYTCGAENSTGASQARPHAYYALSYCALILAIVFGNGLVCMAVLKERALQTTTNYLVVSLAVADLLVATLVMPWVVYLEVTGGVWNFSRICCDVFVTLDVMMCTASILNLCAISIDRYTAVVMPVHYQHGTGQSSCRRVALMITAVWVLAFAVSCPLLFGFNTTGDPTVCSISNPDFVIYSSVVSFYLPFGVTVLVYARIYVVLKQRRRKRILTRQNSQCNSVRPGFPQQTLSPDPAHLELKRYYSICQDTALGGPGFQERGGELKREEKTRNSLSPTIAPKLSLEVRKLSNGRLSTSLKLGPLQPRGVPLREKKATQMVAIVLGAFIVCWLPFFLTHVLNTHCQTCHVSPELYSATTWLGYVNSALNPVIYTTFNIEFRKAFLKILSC
The test is described as follows: Radioligand binding, human D3 receptor ([3H]-spiperone). The following applies: first value of the cell; membranes of transfected HEK-293 EBNA cells, 0.5 nM [3H]-spiperone; read-out: Ki(nM) D3/5HT2A/D2: D3. The protocol:
as §1, §2, §3, §4

Values joined by “and” are separate entries in the source; they are usually repeats but may differ in a detail not shown here. Equal entries are not always repeated.

T1 sequence (P28223 whole entry): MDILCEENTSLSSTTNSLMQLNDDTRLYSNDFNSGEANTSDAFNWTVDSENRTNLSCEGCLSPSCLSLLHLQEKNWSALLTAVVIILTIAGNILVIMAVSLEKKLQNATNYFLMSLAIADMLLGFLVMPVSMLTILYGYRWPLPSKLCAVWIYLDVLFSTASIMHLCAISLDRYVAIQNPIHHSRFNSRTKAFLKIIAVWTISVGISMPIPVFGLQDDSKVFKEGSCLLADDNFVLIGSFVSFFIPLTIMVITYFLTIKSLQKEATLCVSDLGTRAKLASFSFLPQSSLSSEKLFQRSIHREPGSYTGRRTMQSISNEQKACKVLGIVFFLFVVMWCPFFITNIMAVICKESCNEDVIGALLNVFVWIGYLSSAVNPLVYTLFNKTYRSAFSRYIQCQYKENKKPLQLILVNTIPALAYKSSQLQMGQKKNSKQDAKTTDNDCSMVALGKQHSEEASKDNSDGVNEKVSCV

Regarding “1-(4-Ethoxy-phenyl)-3-{4-[4-(4-fluoro-benzoyl)-piperidin-1-yl]-butyl}-urea [Example 70]”, the Ki in test [1] amounted to 22 nM; in test [2], 2710 nM; in test [3], 97 nM.

Regarding `O=C(NC[C@@H]1C[C@H]1CN1CCC(C(=O)c2ccc(F)cc2)CC1)Nc1ccc(Cl)cc1` (relative stereo) [Example 46, 1-(4-Chloro-phenyl)-3-{Trans-2-[4-(4-fluoro-benzoyl)-piperidin-1-ylmethyl]-cyclopropylmethyl}-urea], the results for the Ki in test [1], in test [2] and in test [3] were 2 nM, 30 nM and 15 nM, respectively.

Turning to `O=C(N[C@H]1CC[C@H](CCN2CCC(C(=O)c3ccc(F)cc3F)CC2)CC1)C1CCOC1` (relative stereo) [Example 61, Tetrahydro-furan-3-carboxylic acid trans (4-{2-[4-(2,4-difluoro-benzoyl)-piperidin-1-yl]-ethyl}-cyclohexyl)-amide], the Ki in test [1] stood at 64 nM; in test [2], 2900 nM; in test [3], 35 nM.

On to `O=C(N[C@H]1CC[C@H](CCN2CCC(C(=O)c3ccc(F)cc3)CC2)CC1)c1ccc(-n2cccc2)cc1` [Example 9], for which the Ki in test [1] turned out to be 2 nM; in test [2], 106 nM; in test [3], 6 nM.

Regarding `CC(C)(C(=O)N[C@H]1CC[C@H](CCN2CCC(C(=O)c3ccc(F)cc3)CC2)CC1)c1ccc(Cl)cc1` [Example 14, 2-(4-Chloro-phenyl)-N-trans (4-{2-[4-(4-fluoro-benzoyl)-piperidin-1-yl]-ethyl}-cyclohexyl)-isobutyramide], the figures for the Ki in test [1], in test [2] and in test [3] were 12 nM, 96 nM and 144 nM, respectively.

With `O=C(N[C@H]1CC[C@H](CCN2CCC(C(=O)c3ccc(F)cc3)CC2)CC1)c1ccnc2ncccc12` [Example 20, [1,8]Naphthyridine-4-carboxylic acid trans-(4-{2-[4-(4-fluoro-benzoyl)-piperidin-1-yl]-ethyl}-cyclohexyl)-amide], the Ki in test [1] was 5 nM; in test [2], 586 nM; in test [3], 18 nM.

For the compound `O=C(N[C@H]1CC[C@H](CCN2CCC(C(=O)c3ccc(F)cc3)CC2)CC1)c1ccc(Cl)cc1Cl` [Example 22, 2,4-Dichloro-N-trans (4-{2-[4-(4-fluoro-benzoyl)-piperidin-1-yl]-ethyl}-cyclohexyl)-benzamide], the figures for the Ki in test [1], in test [2] and in test [3] were 4 nM, 149 nM and 15 nM, respectively.

In the case of `O=C(N[C@H]1CC[C@H](CCN2CCC(C(=O)c3ccc(F)cc3)CC2)CC1)c1ccc(S(=O)(=O)c2ccc(Cl)cc2)cc1` [Example 23, 4-(4-Chloro-benzenesulfonyl)-N-trans (4-{2-[4-(4-fluoro-benzoyl)-piperidin-1-yl]-ethyl}-cyclohexyl)-benzamide], the Ki was found to be 5 nM in test [1], 73 nM in test [2] and 72 nM in test [3].

Regarding `CCOCCC(=O)N[C@H]1CC[C@H](CCN2CCC(C(=O)c3ccc(F)cc3)CC2)CC1` [Example 25, 3-Ethoxy-N-trans (4-{2-[4-(4-fluoro-benzoyl)-piperidin-1-yl]-ethyl}-cyclohexyl)-propionamide], the Ki amounted to 269 nM in test [1], 777 nM in test [2] and 13 nM in test [3].

In the case of `O=C(CC(F)(F)F)N[C@H]1CC[C@H](CCN2CCC(C(=O)c3ccc(F)cc3)CC2)CC1` [Example 26, 3,3,3-Trifluoro-N-trans-(4-{2-[4-(4-fluoro-benzoyl)-piperidin-1-yl]-ethyl}-cyclohexyl)-propionamide], the results for the Ki in test [1], in test [2] and in test [3] were 14 nM, 684 nM and 17 nM, respectively.

For the compound `O=C(N[C@H]1CC[C@H](CCN2CCC(C(=O)c3ccc(F)cc3)CC2)CC1)C1CCCCC1` [Example 29, Cyclohexanecarboxylic acid trans-(4-{2-[4-(4-fluoro-benzoyl)-piperidin-1-yl]-ethyl}-cyclohexyl)-amide], the Ki in test [1] was 8 nM; in test [2], 450 nM; in test [3] it was 32 nM and 37 nM.

On to `O=C(N[C@H]1CC[C@H](CCN2CCC(C(=O)c3ccc(F)cc3)CC2)CC1)c1ccc(N2CCOCC2)nn1` [Example 30A25, 6-Morpholin-4-yl-pyridazine-3-carboxylic acid trans (4-{2-[4-(4-fluoro-benzoyl)-piperidin-1-yl]-ethyl}-cyclohexyl)-amide], for which the Ki in test [1] was found to be 5 nM; in test [2] it was 1280 nM; in test [3] it was 26 nM.

In the case of `O=C(CCOc1ccccc1)N[C@H]1CC[C@H](CCN2CCC(C(=O)c3ccc(F)cc3)CC2)CC1` [Example 30A27, N-trans (4-{2-[4-(4-Fluoro-benzoyl)-piperidin-1-yl]-ethyl}-cydohexyl)-3-phenoxy-propionamide], the Ki in test [1] came out at 8 nM; in test [2], 1120 nM; in test [3] it was 8 nM.

On to `O=C(C#Cc1ccccc1)N[C@H]1CC[C@H](CCN2CCC(C(=O)c3ccc(F)cc3)CC2)CC1` [Example 30A28, 3-Phenyl-propynoic acid trans (4-{2-[4-(4-fluoro-benzoyl)-piperidin-1-yl]-ethyl}-cyclohexyl)-amide], for which the Ki came to 5 nM in test [1], 470 nM in test [2] and 9 nM in test [3].

For the compound `CC(C)(CO)C(=O)N[C@H]1CC[C@H](CCN2CCC(C(=O)c3ccc(F)cc3)CC2)CC1` [Example 30A29, N-trans (4-{2-[4-(4-Fluoro-benzoyl)-piperidin-1-yl]-ethyl}-cyclohexyl)-3-hydroxy-2,2-dimethyl-propionamide], the figures for the Ki in test [1], in test [2] and in test [3] were 25 nM, 1010 nM and 207 nM, respectively.

With `Cc1cc(CC(=O)N[C@H]2CC[C@H](CCN3CCC(C(=O)c4ccc(F)cc4)CC3)CC2)on1` [Example 30A36], the values for the Ki in test [1], in test [2] and in test [3] were 5 nM, 1280 nM and 26 nM, respectively.

With `COc1cc(CC(=O)N[C@H]2CC[C@H](CCN3CCC(C(=O)c4ccc(F)cc4)CC3)CC2)cc(OC)c1` [Example 30A37, 2-(3,5-Dimethoxy-phenyl)-N-trans (4-{2-[4-(4-fluoro-benzoyl)-piperidin-1-yl]-ethyl}-cyclohexyl)-acetamide], the Ki is 11 nM in test [1], 2000 nM in test [2] and 29 nM in test [3].

For `CC(=O)OCC(=O)N[C@H]1CC[C@H](CCN2CCC(C(=O)c3ccc(F)cc3)CC2)CC1` [Example 30A58, Acetic acid trans (4-{2-[4-(4-fluoro-benzoyl)-piperidin-1-yl]-ethyl}-cyclohexylcarbamoyl)-methyl ester], the Ki in test [1] was determined as 15 nM; in test [2] it was 2070 nM; in test [3] it was 30 nM.

Take `O=C(c1ccc(F)cc1)C1CCN(CC[C@H]2CC[C@H](NC(=O)C3(O)CC3)CC2)CC1` [Example 30A59, 1-Hydroxy-cyclopropanecarboxylic acid (trans-4-{2-[4-(4-fluoro-benzoyl)-piperidin-1-yl]-ethyl}-cyclohexyl)-amide]: the values for the Ki in test [1], in test [2] and in test [3] were 5 nM, 888 nM and 19 nM, respectively.

`COC(=O)N[C@H]1CC[C@H](CCN2CCC(C(=O)c3ccc(F)cc3)CC2)CC1` [Example 30A64, Trans (4-{2-[4-(4-Fluoro-benzoyl)-piperidin-1-yl]-ethyl}-cyclohexyl)-carbamic acid methyl ester]: the Ki in test [1] is 13 nM; in test [2], 625 nM; in test [3], 19 nM.
